Test: HPLC chromatograms of samples comprising vitamin C (degradation products)
Format: physicochemical
Conditions: after 1 hour at ambient conditions without chemical stabilization
Experimental: FIGS. 36A and 36B show two HPLC chromatograms from samples comprising vitamin C. […] No degradation products were visible. FIG. 59 is a table summarizing the vitamin C concentration in silk protein fragment-films (2% silk films air dried at RT) of the present disclosure. In FIG. 59 processing conditions included 100° C. extraction for 20 min, RT rinse, LiBr in 60° C. oven for 4-6 hours. FIG. 60 is arable summarizing the stability of vitamin C in chemically stabilized solutions. FIGS. 89A-89B are tables summarizing vitamin C stability in SPF gels without chemical stabilizers as compared to chemically stabilized vitamin C in competitive anti-aging skincare products. […] Without wishing to be bound by theory, it appears there is a relationship between vitamin C concentration, silk concentration, and gelation. An increase in vitamin C at a given concentration of silk will result in a longer time to gelation or inhibit gelation. This may be due to the vitamin C molecule physically blocking interaction between silk protein fragments or cross-linking of silk protein.

degradation products of vitamin C: degradation products are visible
Compound: O=C1O[C@H]([C@@H](O)CO)C(O)=C1O [vitamin C, L-ascorbic acid]

Reference: patent US11857663B2, “Stable silk protein fragment compositions” (Evolved By Nature, Inc., priority 2013, dated 2024)
